According to patent US20240360177A1, “PEPTIDES WITH ANTIMICROBIAL ACTIVITIES” (priority 2021, published 2024):
In brackets after ≈: the same amount, converted by molar mass. Non-standard residues stand in square brackets, D forms with d. Residues, ends and D or L forms follow the SMILES beside them. AEA = NCCOCC(=O)O; Ava = NCCCCC(=O)O

Key:
Conditions in all cases: 24 h
C. glabrata = test system: C. glabrata
C. tropicalis = test system: C. tropicalis
C. albicans = test system: C. albicans
C. parapsilosis = test system: C. parapsilosis
C. dubliniensis = test system: C. dubliniensis

Row | Compound | MIC C. glabrata (C. glabrata) [µg/mL] | MIC C. tropicalis (C. tropicalis) [µg/mL] | MIC C. albicans (C. albicans) [µg/mL] | MIC C. parapsilosis (C. parapsilosis) [µg/mL] | MIC C. dubliniensis (C. dubliniensis) [µg/mL]
1 | N=C(N)NCCC[C@@H](N)C(=O)N[C@@H](CCCNC(=N)N)C(=O)N[C@H](CCCNC(=N)N)C(=O)NCCCCC(=O)N[C@H](CCCNC(=N)N)C(=O)N[C@@H](CCCNC(=N)N)C(=O)N[C@H](CCCNC(=N)N)C(=O)NCCCCC(=O)N[C@H](CCCNC(=N)N)C(=O)N[C@@H](CCCNC(=N)N)C(=O)N[C@H](CCCNC(=N)N)C(=O)N[C@@H](CCCNC(=N)N)C(=O)NCCNCC(=O)N[C@H](CCCNC(=N)N)C(=O)N[C@@H](CCCNC(=N)N)C(=O)N[C@H](CCCNC(=N)N)C(=O)N[C@@H](CCCNC(=N)N)C(N)=O [SEQ ID NO: 43, rRr-(Ava)-rRr-(Ava)-rRrR-(Aeg)-rRrR-NH2] | 1 (≈ 0.4 µM) | 0.5 (≈ 0.2 µM) | 1 (≈ 0.4 µM) | 0.5 (≈ 0.2 µM) | 0.5 (≈ 0.2 µM)
2 | N=C(N)NCCC[C@@H](N)C(=O)N[C@@H](CCCNC(=N)N)C(=O)N[C@H](CCCNC(=N)N)C(=O)NCCOCC(=O)N[C@H](CCCNC(=N)N)C(=O)N[C@@H](CCCNC(=N)N)C(=O)N[C@H](CCCNC(=N)N)C(=O)NCCCCC(=O)N[C@H](CCCNC(=N)N)C(=O)N[C@@H](CCCNC(=N)N)C(=O)N[C@H](CCCNC(=N)N)C(=O)N[C@@H](CCCNC(=N)N)C(=O)NCCCCC(=O)N[C@H](CCCNC(=N)N)C(=O)N[C@@H](CCCNC(=N)N)C(=O)N[C@H](CCCNC(=N)N)C(=O)N[C@@H](CCCNC(=N)N)C(N)=O [SEQ ID NO: 47, rRr-(Aea)-rRr-(Ava)-rRrR-(Ava)-rRrR-NH2] (H-[dR]R[dR][AEA][dR]R[dR][Ava][dR]R[dR]R[Ava][dR]R[dR]R-NH2) | 1 (≈ 0.4 µM) | 0.5 (≈ 0.2 µM) | 1 (≈ 0.4 µM) | 0.5 (≈ 0.2 µM) | 0.5 (≈ 0.2 µM)
3 | N=C(N)NCCC[C@@H](N)C(=O)N[C@@H](CCCNC(=N)N)C(=O)N[C@H](CCCNC(=N)N)C(=O)NCCCCC(=O)N[C@H](CCCNC(=N)N)C(=O)N[C@@H](CCCNC(=N)N)C(=O)N[C@H](CCCNC(=N)N)C(=O)NCCOCC(=O)N[C@H](CCCNC(=N)N)C(=O)N[C@@H](CCCNC(=N)N)C(=O)N[C@H](CCCNC(=N)N)C(=O)N[C@@H](CCCNC(=N)N)C(=O)NCCCCC(=O)N[C@H](CCCNC(=N)N)C(=O)N[C@@H](CCCNC(=N)N)C(=O)N[C@H](CCCNC(=N)N)C(=O)N[C@@H](CCCNC(=N)N)C(N)=O [SEQ ID NO: 48, rRr-(Ava)-rRr-(Aea)-rRrR-(Ava)-rRrR-NH2] (H-[dR]R[dR][Ava][dR]R[dR][AEA][dR]R[dR]R[Ava][dR]R[dR]R-NH2) | 1 (≈ 0.4 µM) | 0.5 (≈ 0.2 µM) | 0.5 (≈ 0.2 µM) | 0.5 (≈ 0.2 µM) | 0.5 (≈ 0.2 µM)
4 | N=C(N)NCCC[C@@H](N)C(=O)N[C@@H](CCCNC(=N)N)C(=O)N[C@H](CCCNC(=N)N)C(=O)NCCCCC(=O)N[C@H](CCCNC(=N)N)C(=O)N[C@@H](CCCNC(=N)N)C(=O)N[C@H](CCCNC(=N)N)C(=O)NCCCCC(=O)N[C@H](CCCNC(=N)N)C(=O)N[C@@H](CCCNC(=N)N)C(=O)N[C@H](CCCNC(=N)N)C(=O)N[C@@H](CCCNC(=N)N)C(=O)NCCOCC(=O)N[C@H](CCCNC(=N)N)C(=O)N[C@@H](CCCNC(=N)N)C(=O)N[C@H](CCCNC(=N)N)C(=O)N[C@@H](CCCNC(=N)N)C(N)=O [SEQ ID NO: 49, rRr-(Ava)-rRr-(Ava)-rRrR-(Aea)-rRrR-NH2] (H-[dR]R[dR][Ava][dR]R[dR][Ava][dR]R[dR]R[AEA][dR]R[dR]R-NH2) | 1 (≈ 0.4 µM) | 0.5 (≈ 0.2 µM) | 1 (≈ 0.4 µM) | 0.5 (≈ 0.2 µM) | 0.5 (≈ 0.2 µM)
